In patent US7960369B2, “Receptor function regulator” (Takeda Pharmaceutical Company Limited, priority 2002, dated 2011):

Columns and labels:
Male SD rats = assay: In vivo insulin secretion promoting effect and hypoglycemic action, oral glucose tolerance test; design: species or system rat; settings: 30 mg/kg oral, glucose 2 g/kg oral 30 min after administration, Williams test p<=0.025
Method: Male SD rats (CLEA Japan, Inc, 7-week-old) were fasted for one day, and divided into groups (6 per group) based on blood glucose level and body weight. A suspension of the compound of Example 41 in 0.5% methyl cellulose was orally administered at the dose of 30 mg/kg and glucose (2 g/kg) was orally loaded at 30 min after administration. Only 0.5% methyl cellulose was administered to the control group, and similarly loaded with glucose. Plasma was taken before glucose tolerance test, and 7, 30 and 60 minutes after glucose tolerance test, and the blood glucose level and insulin concentration were measured. The blood glucose level was measured by HITACHI autoanalyzer 7070, and insulin was measured by radioimmunoassay ([^125L] Sionoria insulin, Shionogi & Co., Ltd.).

[1] = tested on: mouse pancreatic β cell line MIN6; assay: Promotion of insulin secretion from MIN6 (insulin immunoassay); format: cell-based; settings: MIN6, KRBH with 22 mM glucose, 90 min
Method: (§1) Mouse pancreatic β cell line MIN6 cultured in a flask was detached with PBS containing 2.5 mM EDTA, and seeded and incubated in a 96 well plate for 2 days. The medium used was obtained by adding 15% fetal bovine serum (ThermoTrace), […] 2-mercaptoethanol (Invitrogen), 20 mM HEPES pH 7.3, 100 U/ml penicillin and 100 μg/ml streptomycin to Dulbecco's Modified Eagle Medium (DMEM, Invitrogen) containing 4.5 g/l of glucose. The cells were washed twice with modified Krebs-Ringer bicarbonate buffer (KRBH, 116 mM NaCl, 4.7 mM KCl, 1.2 mM KH2PO4, 1.2 mM MgSO4, 2.5 mM CaCl2, 25 mM NaHCO3, 24 mM HEPES pH 7.3) and preincubated at 37° C. under 5% CO2 conditions for 30 min. Fatty acid diluted and prepared with a buffer obtained by adding 22 mM glucose to the above-mentioned KRBH was added to the cell after preincubation and the cells were incubated at 37° C. under 5% CO2 conditions for 90 min. After incubation, the cell supernatant was recovered and cryopreserved. The insulin content of the supernatant was measured using a commercially available insulin immunoassay kit (Amersham Pharmacia Biotech).
as §1, with “(KBH,” for “(KRBH,”, “The compound” for “Fatty acid”

human GPR40 = biological target: T1, human GPR40 (Homo sapiens, UniProt O14842); assay: Effect of regulation of GPR40 receptor function (agonistic effect), intracellular calcium by FLIPR; format: cell-based; settings: CHO cell line (No. 104) expressing human GPR40, fluorescence intensity at 30 sec after start of reaction
T1 construct: expressed in transfected cells; host or cells: CHO cell line CHO-hGPR40 No. 104 (pAKKO-111 vector)
Method: CHO cell line (No. 104) made to express human GPR40 was diluted such that 3×10^4 cells/100 μL were contained, dispensed to a black walled 96-well plate (Costar) at 100 μL per well, and incubated overnight in a CO2 incubator. The changes in the intracellular calcium concentration were measured using FLIPR (Molecular Device). The method is described in the following.
Fluo-3AM (DOJIN) (50 μg) was dissolved in 21 μl DMSO (DOJIN), and an equal amount of 20% pluronic acid (Molecular Probes) was added and mixed, and the mixture was added to 10.6 ml of an assay buffer [prepared by adding 20 ml of 1M HEPES (pH 7.4) (DOJIN) to 1 L of HBSS (Invitrogen), and adding a mixed solution (10 ml) obtained by dissolving probenecid (Sigma) (710 mg) in 1N NaOH (5 ml) and adding and mixing with the above-mentioned HBSS/HEPES solution (5 ml)] supplemented with 105 μl of fetal calf serum to give a fluorescence dye solution. The medium in the cell plate was removed, a fluorescence dye solution was immediately dispensed at 100 μl per well, and incubated in a CO2 incubator for 1 hr to incorporate fluorescence dye into the cell. The incubated cells were washed with the above-mentioned assay buffer. The compound to be added to the cell was diluted with the assay buffer to each concentration and dispensed to a test sample plate. After the above-mentioned pretreatment, changes in the intracellular calcium concentration after addition of the compound was measured by FLIPR, and the agonistic effect was examined. EC50 value was calculated from a dose response curve based on the changes in the fluorescence intensity value at 30 sec after the start of the reaction.

T1 sequence (O14842 whole entry): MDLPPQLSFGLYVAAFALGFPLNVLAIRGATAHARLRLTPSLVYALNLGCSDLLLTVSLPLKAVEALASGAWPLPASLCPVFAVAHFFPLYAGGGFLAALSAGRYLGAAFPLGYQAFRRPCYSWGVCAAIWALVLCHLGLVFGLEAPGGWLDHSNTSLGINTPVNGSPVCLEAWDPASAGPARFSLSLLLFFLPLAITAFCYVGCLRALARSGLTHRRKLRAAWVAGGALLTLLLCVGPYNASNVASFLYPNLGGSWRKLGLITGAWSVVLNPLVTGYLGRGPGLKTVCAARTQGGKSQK

- EC50 (human GPR40): 55 nM
Compound: O=C(O)CCc1ccc(O[C@@H]2CCc3ccccc32)cc1 [Example 41, (R)-4-[(2,3-dihydro-1H-inden-1-yl)oxy]benzenepropanoic acid]
- increase in insulin versus control group (Male SD rats; at 7 minutes after glucose tolerance test): significantly greater increase in insulin
- increase in blood glucose level versus control group (Male SD rats; at 30 minutes after glucose tolerance test): significantly suppressed increase in the blood glucose level
- insulin secretion enhancing activity [1]: significant insulin secretion enhancing activity
